According to paper PMC8071193, “Dual-Target Compounds against Type 2 Diabetes Mellitus: Proof of Concept for Sodium Dependent Glucose Transporter (SGLT) and Glycogen Phosphorylase (GP) Inhibitors” (Pharmaceuticals, 2021):
Like-named read-outs stand apart in the source and are kept apart here.

How the values were obtained:
SGLT2 = target: T1, SGLT2 (Homo sapiens, UniProt P31639); assay: SGLT2 inhibition, 2-NBDG glucose uptake in SGLT2-overexpressing TSA201 cells; format: cell-based
T1 construct: host or cells: TSA201 (Human Embryonal Kidney) cells, lentiviral transduction, puromycin selection
T1 sequence (P31639 1-672): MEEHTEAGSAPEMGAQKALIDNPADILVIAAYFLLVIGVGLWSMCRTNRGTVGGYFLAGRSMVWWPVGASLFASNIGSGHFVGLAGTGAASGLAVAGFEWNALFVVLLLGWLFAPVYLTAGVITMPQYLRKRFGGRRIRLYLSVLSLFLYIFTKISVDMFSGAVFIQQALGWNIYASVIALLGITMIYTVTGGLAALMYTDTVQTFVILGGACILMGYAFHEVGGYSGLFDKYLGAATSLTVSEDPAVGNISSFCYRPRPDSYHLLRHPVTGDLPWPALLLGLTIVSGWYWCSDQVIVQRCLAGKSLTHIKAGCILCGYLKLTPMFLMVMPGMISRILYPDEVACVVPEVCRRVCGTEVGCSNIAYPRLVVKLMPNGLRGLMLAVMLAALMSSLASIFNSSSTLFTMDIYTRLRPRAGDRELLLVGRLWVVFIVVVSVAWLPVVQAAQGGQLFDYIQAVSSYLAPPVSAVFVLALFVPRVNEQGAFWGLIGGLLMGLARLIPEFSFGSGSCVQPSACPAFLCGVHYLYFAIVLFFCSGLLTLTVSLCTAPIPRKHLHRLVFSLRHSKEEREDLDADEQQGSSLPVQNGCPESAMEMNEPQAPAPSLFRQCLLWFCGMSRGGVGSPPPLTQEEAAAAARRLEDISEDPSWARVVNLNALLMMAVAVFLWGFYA
Description: (§1) Cells (100,000 cells, TSA201) were plated into each well of a 24-well plate and incubated overnight at 37 °C. […] Two wells were treated only with hexadimetrine bromide as a control. After 24 h of transfection, the medium was changed to fresh medium without antibiotics. Cells were collected and transferred into T-25 flasks after 3 days. On the fifth day, 10 µg/mL puromycin was added to select only the transfected cells. The nontransfected cells cannot survive this high concentration of antibiotic. To keep up the selection, the medium including 10 µg/mL puromycin was replaced every two days. The cells lived under puromycin pressure until the day of the experiments.
(§2) TSA201 cells (25,000) with and without overexpressed SGLT1 or 2 were put into poly-L-lysine (P5999, Sigma-Aldrich, St. Luis, MO, USA) treated wells of a 96-well plate. The next day, the cells were starved for 1 h with 90 µL glucose-free medium (D5036-10X1L Sigma-Aldrich, St. Luis, MO, USA) (with or without inhibitor). After starving, cells were treated with 100 µM 2-NBDG and incubated for 30 min (again with or without inhibitor). The incubation time of cells with possible inhibitors was 90 min altogether. After incubation, the medium was removed, the wells were washed with PBS twice, lysed with 100 µL lysis buffer (0.1 M KH2PO4 + 1% Triton-x, pH = 11), and stored at -20°C. […] Subsequently, the protein concentration was measured and NBDG uptake was normalized to protein amount.
(§3) After selecting optimal concentrations, each compound was tested at four different concentrations. […] To determine the specific effects of the compounds on SGLT1 or 2, the glucose uptake values in TSA201 cells without SGLT overexpression were subtracted from the values in TSA201 cell overexpressing SGLT. […] All calculations were prepared using the GraphPad Prism software (GraphPad Software, Inc., SanDiego, CA, USA). The data were plotted on a logarithmic scale as a function of inhibitor concentration. The IC50 values were calculated by non-linear regression analysis from sigmoidal dose-response curves. The results of kinetic experiments were calculated from at least three independent experiments. Each experiment contained four parallel samples that were averaged. The standard deviations were calculated based on the average values for the independent experiments.

SGLT1 = target: T2, SGLT1 (Homo sapiens, UniProt P13866); assay: SGLT1 inhibition, 2-NBDG glucose uptake in SGLT1-overexpressing TSA201 cells; format: cell-based
T2 construct: host or cells: TSA201 (Human Embryonal Kidney) cells, lentiviral transduction, puromycin selection
T2 sequence (P13866 1-664): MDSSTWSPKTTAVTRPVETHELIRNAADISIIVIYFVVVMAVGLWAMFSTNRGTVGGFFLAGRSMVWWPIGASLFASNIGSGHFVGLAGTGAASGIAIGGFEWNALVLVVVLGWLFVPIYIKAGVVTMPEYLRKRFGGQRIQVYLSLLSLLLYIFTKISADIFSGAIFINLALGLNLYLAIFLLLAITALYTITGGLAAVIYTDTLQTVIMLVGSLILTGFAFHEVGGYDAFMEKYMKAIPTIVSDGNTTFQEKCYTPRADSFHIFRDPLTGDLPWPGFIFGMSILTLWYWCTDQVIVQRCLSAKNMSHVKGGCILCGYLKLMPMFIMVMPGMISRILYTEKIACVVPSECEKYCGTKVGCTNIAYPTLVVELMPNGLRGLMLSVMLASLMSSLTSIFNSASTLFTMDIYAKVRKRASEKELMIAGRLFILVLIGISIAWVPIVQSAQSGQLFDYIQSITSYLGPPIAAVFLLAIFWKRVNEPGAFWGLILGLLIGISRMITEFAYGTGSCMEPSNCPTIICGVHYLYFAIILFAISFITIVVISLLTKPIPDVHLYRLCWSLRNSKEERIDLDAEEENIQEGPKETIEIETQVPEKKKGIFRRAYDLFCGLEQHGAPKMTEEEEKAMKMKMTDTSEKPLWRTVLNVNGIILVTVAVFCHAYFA
Description: as §1, §2, §3

[1] = target: T3, rabbit muscle glycogen phosphorylase b (rmGPb) (Oryctolagus cuniculus, UniProt P00489); settings: Table 3; NI: no inhibition at 625 µM; cited from earlier work
T3 construct: Glycogen phosphorylase b was isolated from rabbit skeletal muscle; from tissue; host or cells: rabbit skeletal muscle
T3 sequence (P00489 1-843): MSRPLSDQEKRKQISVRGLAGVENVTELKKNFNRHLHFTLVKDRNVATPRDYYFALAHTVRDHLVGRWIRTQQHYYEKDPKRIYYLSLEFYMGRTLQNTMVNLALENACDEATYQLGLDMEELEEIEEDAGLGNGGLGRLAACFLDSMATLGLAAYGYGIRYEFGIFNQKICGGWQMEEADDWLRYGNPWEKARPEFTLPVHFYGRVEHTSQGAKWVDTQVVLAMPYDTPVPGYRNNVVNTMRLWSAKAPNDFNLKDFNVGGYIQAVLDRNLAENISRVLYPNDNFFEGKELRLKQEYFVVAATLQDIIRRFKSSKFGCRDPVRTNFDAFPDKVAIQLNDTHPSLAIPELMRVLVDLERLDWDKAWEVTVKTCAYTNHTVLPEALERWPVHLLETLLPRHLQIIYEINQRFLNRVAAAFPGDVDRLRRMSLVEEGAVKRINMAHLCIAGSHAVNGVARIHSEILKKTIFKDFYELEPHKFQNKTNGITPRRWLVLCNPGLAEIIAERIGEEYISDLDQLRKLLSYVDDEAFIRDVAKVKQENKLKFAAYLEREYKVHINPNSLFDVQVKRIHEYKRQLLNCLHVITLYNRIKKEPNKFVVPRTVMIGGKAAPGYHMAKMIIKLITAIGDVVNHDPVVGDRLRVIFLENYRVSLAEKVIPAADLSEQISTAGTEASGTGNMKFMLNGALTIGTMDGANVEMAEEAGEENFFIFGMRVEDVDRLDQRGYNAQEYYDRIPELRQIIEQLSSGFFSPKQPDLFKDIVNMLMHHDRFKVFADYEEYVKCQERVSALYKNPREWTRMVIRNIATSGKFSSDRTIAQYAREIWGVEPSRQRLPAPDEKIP

[2] = test system: sodium dependent glucose cotransporter (SGLT2); set-up: method as in earlier work; settings: ref 19 (1), 35 (2), 36 (3), 37 (4), 38 (5), 34 (6), cited from earlier work; for IC50: Table 1, read-out: IC50 against SGLT2; for selectivity SGLT2/SGLT1: Table 1, value in brackets
[3] = target: T3, rabbit muscle glycogen phosphorylase b (rmGPb); assay: Glycogen phosphorylase b enzyme kinetic inhibition assay (direction of glycogen synthesis); format: biochemical; settings: Table 2; at 625 µM
Excerpt: The 2-NBDG (2-deoxy-2-[(7-nitro-2,1,3-benzoxadiazol-4-yl)amino]-D-glucose, cat. 11046) was purchased from Cayman Chemical Company (Ann Arbor, MI, USA). Lentivirus for SLC5A1 and SLC5A2 (NM_000343 for SGLT1, and NM-003041 for SGLT2) were obtained from Origene (Rockville, MD, USA). These expression vectors contain a puromycin resistance gene. […] CyQUANT^TM Cell Proliferation Assay Kit (2036547) was from Invitrogen (Carlsbad, CA, USA). Glycogen phosphorylase b was isolated from rabbit skeletal muscle according to the method of Fischer and Krebs.
Enzyme activity in the direction of glycogen synthesis was assayed. Kinetic data were collected using the muscle phosphorylase b (dephosphorylated, GPb) isoform. […] Enzymatic activities were presented in the form of a double-reciprocal plot (Lineweaver-Burk). The plots were analysed by a non-linear data analysis program. The inhibitor constants (Ki) were determined by secondary plots, replotting the slopes from the Lineweaver-Burk plot against the inhibitor concentrations. The means of standard errors for all calculated kinetic parameters averaged to less than 10% [78, 79].

[4] = Table 3, TSA-201 cells, NI: no inhibition at 1000 µM

Row | IC50 (SGLT2; [4]) | IC50 (SGLT1; [4]) | SMILES | Ki [1] | IC50 [2] | selectivity SGLT2/SGLT1 [2] | further results
1 | 9.1 ± 2.94 µM | 242 ± 37.9 µM | OC[C@H]1O[C@@H](c2cn(-c3ccccc3)nn2)[C@H](O)[C@@H](O)[C@@H]1O [22a] | > 625 µM | – | – | –
2 | 111 ± 27.6 µM | 23.8 ± 5.72 µM | OC[C@H]1O[C@@H](c2cn(-c3ccc4ccccc4c3)nn2)[C@H](O)[C@@H](O)[C@@H]1O [22b] | > 625 µM | – | – | –

Second part, the compound before the results:

Row | SMILES | IC50 (SGLT2; [4]) | IC50 (SGLT1; [4]) | Ki [1] | IC50 [2] | selectivity SGLT2/SGLT1 [2] | further results
3 | O=C(CCc1ccc(O)cc1)c1c(O)cc(O)cc1O[C@@H]1O[C@H](CO)[C@@H](O)[C@H](O)[C@H]1O [compound 1, phlorizin] | – | – | – | 0.033 µM | – | –
4 | Cc1ccc([C@@H]2O[C@H](CO)[C@@H](O)[C@H](O)[C@H]2O)cc1Cc1ccc(-c2ccc(F)cc2)s1 [compound 4, canagliflozin] | – | – | – | 0.0022 µM | 414 | –
5 | OC[C@H]1O[C@@H](c2ccc(F)c(Cc3cc4ccccc4s3)c2)[C@H](O)[C@@H](O)[C@@H]1O [compound 5, ipragliflozin] | – | – | – | 0.0074 µM | 254 | –
6 | OC[C@H]1O[C@@H](c2nc(Cc3ccccc3)c[nH]2)[C@H](O)[C@@H](O)[C@@H]1O [compound 18, 4(5)-Benzyl-2-(β-D-glucopyranosyl)imidazole] | – | – | – | – | – | IC50 (SGLT2): 3.57 ± 0.42 µM; times more effective (SGLT2 inhibition) (SGLT2; compared to 1,2,4-triazole 19a): ~ 20 times; IC50 (SGLT1): 11.7 ± 2.48 µM; inhibition at 625 µM [3]: 12%
